Results: EP0247971A2, “Novel pharmaceutical compositions comprising and use of cis-6-(4-acetanilido)-8,9-dimethoxy-2-methyl-1,2,3,4,4a,10b-hexahydrobenzo[c][1,6]naphthyridin” (SANDOZ AG, priority 1986, dated 1987)

How the values were obtained:
Type in all cases: in vivo
[1] = tested on: patients exhibiting bronchial asthma; experiment: Clinical trial A: bronchodilator efficacy compared with placebo and/or Theophylline and with Salbutamol
Source text: Criteria for inclusion are based on medical history and on initial examination. Subjects selected are of either sex, aged between 18 and 60 years, and identified as having a history of bronchial asthma and positive response to inhalation of β2-agonist therapy (e.g. Fenoterol or Salbutamol) or other bronchodilator therapy, e.g. with FEV-1 and/or PEFR increasing by 20% as documented 1 week before commencement of the trial. Baseline of FEV-1 and/or PEFR in each subject entered for the trial should be at least 20% below the predicted value, preferably also at the time of trial. The following exclusion criteria are applied: • - Severe chronic obstructive pulmonary disease, emphysema, active and progressive infection, status asthmaticus during the last 12 months. • - Any serious or chronic illness of the gastrointestinal system, liver or kidneys which may influence absorption, metabolism and excretion of the drugs. • - Diabetes mellitus. • - Any condition which might impair the ability of the physician to evaluate the progress of the patient.
Medication employed for the trial comprises: • A. (±)-COMPOUND (in the form of its bis-hydrogen maleate salt), in dry substance form. For administration the active ingre- ded is dissolved in pharmaceutical grade water, 30 - 60 mins. before ingestion: at a concentration of 1 g/100 ml, for administration at a dosage of 300 mg (30 ml), 200 mg (20 ml) or 100 mg (10 ml); at a concentration of 0.5 g/ 100 ml, for administration at a dosage of 50 mg (10 ml); or at a concentration of 0.25 g/100 ml for administration at a dosage of 25 mg (10 ml). • B. Theophylline solution at a dosage of 150 mg. • C. Placebo - aqueous solution only, no active ingredient. • D. Salbutamol, administered by inhalation in 3 puffs comprising 0.1 mg active ingredient/puff.
The trial is performed for each subject on 2, 3 or more separate days, each trial day being separated by a wash-out period of 3 to 7 days. […]

[2] = tested on: subjects exhibiting allergic, atopic bronchoconstrictor response; experiment: Clinical trial B: prophylactic efficacy compared with placebo (allergen challenge); details: vs placebo
Experimental: Suitable individual dosages, e.g. for (i)-COMPOUND as the bis-hydrogen maleate, in such clinical trials comprise e.g. ca. 1 to 25 mg administered by inhalation (for single administration or administration 2 to 3 daily) or ca. 25 to 100 mg orally (for single administration or administration 2 to 3x daily) up to ca. 200 or 300 mg orally (for single administration).
Both acute (0 to 1 hour) and long-term (up to 12 hour) change in lung function is determined post-medication by measurement of parameters (FVC, FEV 1 etc...) as set forth for clinical trial A above.
In addition to monitoring of lung function, blood eosinophil levels are also monitored and the incidence of activated eosinophils and eosinophil secretory proteins is determined. In individual studies, subjects are also subjected to lung lavage and the presence of eosinophils and platelets and their respective secretory products determined before and after exposure to allergen.

Guinea pigs = experiment: Suppression of airways hyperreactivity, sensitised animals (immune complexes); details: immune-complex treated animals, labelled platelets
Source text: Guinea pigs are anaesthetised and airways resistance and compliance recorded as described under example lb^l above. […] Platelets are isolated and labelled with ^lllindium prior to intravenous infusion. Platelet accumulation is monitored by external crystal detectors [c.f. Morley et al. […] Allergic reaction is initiated by i.v. injection of preformed immune complexes (bovine y-globulin/ anti-bovine y-globulin), using a dose that is scarcely sufficient to induce bronchospasm at the first injection. By repeating the dose at regular (10 min.) intervals, bronchospasm of progressively increasing amplitude is evidenced. This effect is paralleled by an incremental retention of platelets within the airway vasculature. Following the last dose of immune complexes, the dose-effect relationship to histamine is re-defined. In animals so treated, induction of airways hyperreactivity is consistently observed.

asthmatic subjects = experiment: Clinical trial C: prophylactic/bronchodilator efficacy in asthma; details: additional bronchodilator dosaging on attack
Experimental: Initial dosaging is of the order of from 1 to 100 mg, e.g. from 5 to 50 mg per day, administered once or in divided dosages 2 or 3x daily, for administration by inhalation and of the order of from 25 to 300 mg per day administered once or in divided dosages 2 or 3x daily, for oral administration, with subsequent reduction in appropriate cases to a maintainance dosage of 1 to 50 mg, e.g. from 5 to 25 mg, per day for inhalation or from 25 to 100 or 200 mg per day orally. Administration is suitably effected in divided dosages 2 or 3x daily. During the course of the trial subjects are monitored continually and all relevant parameters recorded including lung function, alterations in the incidence of activated eosinophils or the release of eosinophil products into the blood or bronchial fluids and/or changes in the function of platelets ex vivo and, in particular,-frequency and severity of asthma exacerbation or attack. Additional bronchodilator dosaging may be provided on the occasion of any such attack.

Row | Structure (SMILES) | tolerance (reported side-effects and side-reactions) ([1]; all instances) | results compared with therapy B (Theophylline 150 mg) or D (Salbutamol inhalation) ([1]; higher dosage rates, e.g. of 50 mg or 100 mg and more) | lung-function ([1]; oral 25 to 300 mg, compared with placebo) | bronchorestrictor response to allergen ([2]; ca. 1 to 25 mg by inhalation or ca. 25 to 300 mg orally prior to allergen challenge) | eosinophilic response ([2]; dosages as indicated prior to allergen challenge) | platelet accumulation (Guinea pigs) | results employing COMPOUND at exacerbation or attack (asthmatic subjects)
1 | COc1cc2c(cc1OC)[C@@H]1CN(C)CC[C@@H]1N=C2c1ccc(NC(C)=O)cc1 (racemic) [cis-6-(4-acetanilido)-8,9-dimethoxy-2-methyl-1,2,3,4,4a,10b-hexahydrobenzo[c][1,6]naphthyridin] | well tolerated | approach or are at least comparable | marked improvement | advance protection | reduction | – | –
2 | COc1cc2c(cc1OC)[C@@H]1CN(C)CC[C@@H]1N=C2c1ccc(NC(C)=O)cc1 [COMPOUND, cis-6-(4-acetanilido)-8,9-dimethoxy-2-methyl-1,2,3,4,4a,10b-hexahydrobenzo[c][1,6]naphthyridin] | – | – | – | – | – | No inhibition | symptomatic efficacy
